Test system: bivalves
Assay: Feed test: detoxification of DSP-toxin containing bivalves by feeding in land-based vessels, DSP by HPLC
Assay type: in vivo
Details: Test 5; additive given separately in addition to bioprotein; 7.2° C.
Excerpt: Seawater from a depth of 45 metres in the Eidfjord, with a salinity of 33-34 per mille, was pumped up into a reservoir on land. The water was then passed into the test vessels. The bivalves were evenly distributed on the mesh/grating in a layer of about 10 cm in thickness. The vessel diameter is about 70 cm. In these small scale tests importance was given to ensuring that oxygen should not be a limiting factor. That is to say that there is sufficient flow-through of water to obtain approximate oxygen saturation in the outflow. The amount of water through each vessel was about 8 litres per minute.
Feeding was effected automatically batchwise throughout the day. That is to say that the daily consumption of the feed slurry according to Example 1 was filled into a tank once a day. The slurry runs from this tank to the bivalve vessel cascade via a valve. In our tests we chose to feed batchwise once an hour. Such portion feeding is important in order to obtain an even distribution to the whole bivalve population. The feed was added in the course of a few seconds. […]
In the case of all the tests, samples were taken immediately prior to the test start and after given time periods. […] The samples were analysed at the Norwegian College of Veterinary Medicine using HPLC (High Performance Liquid Chromatography).
The half-life for DSP was calculated using the following formula: […]

O=C1O[C@H]([C@@H](O)CO)C(O)=C1O [Vitamin C]
Effect on DSP half-life of additive used in addition to bioprotein: no effect

From US20090005345A1, “Detoxification of Shellfish” (priority 2005, published 2009)
